Data on 23 molecules can be found in US12440481B2, “Esters and carbamates as modulators of sodium channels” (VERTEX PHARMACEUTICALS INCORPORATED, priority 2019, dated 2025).

Molecules are shown by their SMILES. Some results are limits rather than exact numbers.

The target in this test is human NaV 1.8 (Homo sapiens, UniProt Q9Y5Y9). Kind of test: E-VIPR Assay for Detecting and Measuring NaV Inhibition Properties. Format: cell-based. To be noted: HEK cells expressing a truncated form of human NaV 1.8; HS = human serum; read-out: EVIPR HS IC50. The text has this: E-VIPR Assay for Detecting and Measuring NaV Inhibition Properties
Chain of human NaV 1.8 (Q9Y5Y9 whole entry, looked up, the tested form may be a part): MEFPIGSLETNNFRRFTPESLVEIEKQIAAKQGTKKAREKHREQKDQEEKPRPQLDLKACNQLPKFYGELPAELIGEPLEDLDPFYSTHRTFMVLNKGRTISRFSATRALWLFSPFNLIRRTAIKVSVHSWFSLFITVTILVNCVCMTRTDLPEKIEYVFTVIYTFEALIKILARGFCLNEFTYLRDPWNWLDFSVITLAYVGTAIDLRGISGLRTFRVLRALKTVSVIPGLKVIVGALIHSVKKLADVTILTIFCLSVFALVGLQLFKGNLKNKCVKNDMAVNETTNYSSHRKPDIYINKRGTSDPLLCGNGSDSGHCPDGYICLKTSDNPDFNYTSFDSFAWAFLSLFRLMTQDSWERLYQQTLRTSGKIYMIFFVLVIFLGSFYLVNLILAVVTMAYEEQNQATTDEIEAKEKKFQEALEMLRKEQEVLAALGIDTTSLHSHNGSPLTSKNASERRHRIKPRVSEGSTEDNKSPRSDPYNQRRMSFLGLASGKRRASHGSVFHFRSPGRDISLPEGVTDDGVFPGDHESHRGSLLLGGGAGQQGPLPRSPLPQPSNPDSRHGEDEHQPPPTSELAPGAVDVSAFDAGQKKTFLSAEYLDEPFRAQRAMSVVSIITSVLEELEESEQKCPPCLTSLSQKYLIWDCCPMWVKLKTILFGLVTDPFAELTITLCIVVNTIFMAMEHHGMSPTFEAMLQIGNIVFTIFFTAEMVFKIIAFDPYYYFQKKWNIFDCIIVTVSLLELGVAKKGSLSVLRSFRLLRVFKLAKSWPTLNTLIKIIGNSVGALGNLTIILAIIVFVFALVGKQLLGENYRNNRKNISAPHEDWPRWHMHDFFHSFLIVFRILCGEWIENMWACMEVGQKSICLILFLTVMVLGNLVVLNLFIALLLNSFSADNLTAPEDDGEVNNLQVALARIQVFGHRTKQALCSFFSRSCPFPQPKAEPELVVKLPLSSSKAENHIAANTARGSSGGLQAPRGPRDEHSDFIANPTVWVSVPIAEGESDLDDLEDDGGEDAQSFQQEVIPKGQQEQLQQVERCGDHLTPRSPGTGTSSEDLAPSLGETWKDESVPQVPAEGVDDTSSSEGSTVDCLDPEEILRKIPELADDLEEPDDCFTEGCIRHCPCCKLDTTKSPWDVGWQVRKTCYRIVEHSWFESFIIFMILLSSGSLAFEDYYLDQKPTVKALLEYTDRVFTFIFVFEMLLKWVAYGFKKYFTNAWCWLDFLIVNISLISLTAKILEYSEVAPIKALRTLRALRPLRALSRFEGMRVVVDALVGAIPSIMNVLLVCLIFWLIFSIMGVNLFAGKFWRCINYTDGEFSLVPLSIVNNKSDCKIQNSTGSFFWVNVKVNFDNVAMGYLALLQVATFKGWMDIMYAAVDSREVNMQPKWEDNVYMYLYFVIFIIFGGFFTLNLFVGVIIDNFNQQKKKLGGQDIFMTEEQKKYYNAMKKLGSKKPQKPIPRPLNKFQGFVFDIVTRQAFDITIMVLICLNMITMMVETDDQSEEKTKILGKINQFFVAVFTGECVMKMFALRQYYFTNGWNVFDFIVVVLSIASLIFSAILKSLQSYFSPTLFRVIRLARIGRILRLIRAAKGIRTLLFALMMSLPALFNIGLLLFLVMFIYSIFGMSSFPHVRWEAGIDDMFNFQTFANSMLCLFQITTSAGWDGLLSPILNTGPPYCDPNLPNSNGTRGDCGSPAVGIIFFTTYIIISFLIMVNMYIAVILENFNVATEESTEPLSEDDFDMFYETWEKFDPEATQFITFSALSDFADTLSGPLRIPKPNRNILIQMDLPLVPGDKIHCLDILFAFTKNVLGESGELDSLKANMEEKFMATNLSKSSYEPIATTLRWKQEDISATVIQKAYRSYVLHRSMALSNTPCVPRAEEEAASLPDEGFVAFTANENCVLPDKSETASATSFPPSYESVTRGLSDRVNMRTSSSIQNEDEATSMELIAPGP
Sodium ion channels are voltage-dependent proteins that can be activated by inducing membrane voltage changes by applying electric fields. The electrical stimulation instrument and methods of use, referred to as E-VIPR, are described in International Publication No. WO 2002/008748 A3 and C.-J. Huang et al. Characterization of voltage-gated sodium channel blockers by electrical stimulation and fluorescence detection of membrane potential, 24 Nature Biotech. 439-46 (2006), both of which are incorporated by reference in their entirety. The instrument comprises a microtiter plate handler, an optical system for exciting the coumarin dye while simultaneously recording the coumarin and oxonol emissions, a waveform generator, a current- or voltage-controlled amplifier, and parallel electrode pairs that are inserted into assay plate wells. Under integrated computer control, this instrument passes user-programmed electrical stimulus protocols to cells within the wells of the microtiter plate.
16-20 hours prior to running the assay on E-VIPR, HEK cells expressing a truncated form of human NaV 1.8 with full channel activity were seeded into microtiter 384-well plates, pre-coated with matrigel, at a density of 25,000 cells per well. 2.5-5% KIR2.1 Bacmam virus was added to the final cell suspension before seeding into cell plates. HEK cells were grown in Dulbecco's Modified Eagle's Medium (DMEM) supplemented with 10% FBS (Fetal Bovine Serum, qualified; Sigma #F4135), 1% NEAA (Non-Essential Amino Acids, Gibco #11140), 1% HEPES (Gibco #15630), 1% Pen-Strep (Penicillin-Streptomycin; Gibco #15140) and 5 μg/ml Blasticidin (Gibco #R210-01). Cells were expanded in vented cap cell culture flasks, with 90-95% humidity and 5% CO2.
Reagents and Stock Solutions:
• 100 mg/mL Pluronic F-127 (Sigma #P2443), in dry DMSO • Compound Plates: Corning 384-well Polypropylene Round Bottom #3656 • Cell Plates: 384-well tissue culture treated plates (Greiner #781091-1B) • 2.5-5% KIR 2.1 Bacmam virus (produced in-house), prepared as described in Section 3.3 of J. A. Fornwald et al., Gene Expression in Mammalian Cells Using BacMam, a Modified Baculovirus System, 1350 Methods in Molecular Biology 95-116 (2016), the entire contents of which are incorporated by reference. The concentration used can be dependent on viral titer of each batch. • 5 mM DiSBAC6 (3), a voltage sensitive oxonol acceptor (CAS number 169211-44-3; 5-[3-(1,3-dihexylhexahydro-4,6-dioxo-2-thioxo-5-pyrimidinyl)-2-propen-1-ylidene]-1,3-dihexyldihydro-2-thioxo-4,6(1H,5H)-pyrimidinedione), in dry DMSO. The preparation of DiSBAC6 (3) is analogous to that of DiSBAC4 (3) as described in Voltage Sensing by Fluorescence Resonance Energy Transfer in Single Cells, Gonzalez, J. E. and Tsien, R. Y. (1995) Biophys. J. 69, 1272-1280. • 5 mM CC2-DMPE, a commercially available membrane-bound coumarin phospholipid FRET donor (ThermoFisher Scientific catalog number K1017, CAS number 393782-57-5; tetradecanoic acid, 1,1′-[(1R)-1-[8-(6-chloro-7-hydroxy-2-oxo-2H-1-benzopyran-3-yl)-3-hydroxy-3-oxido-8-oxo-2,4-dioxa-7-aza-3-phosphaoct-1-yl]-1,2-ethanediyl] ester) was prepared in dry DMSO. […]
On to `COC(=O)c1cc(NC(=O)c2c(Oc3ccc(OC(F)(F)F)cc3Cl)ccc(C3CC3)c2C)c(C)cn1` [Compound 22, Methyl 4-[[6-[2-chloro-4-(trifluoromethoxy)phenoxy]-3-cyclopropyl-2-methyl-benzoyl]amino]-5-methyl-pyridine-2-carboxylate], for which the IC50 (in general, the concentration at which inhibition is half-maximal) is at least 1000 nM.

On to `COC(=O)c1nccc(NC(=O)c2c(Oc3ccc(OC(F)(F)F)cc3OC)ccc(C(F)(F)F)c2F)c1F` [Compound 29, methyl 3-fluoro-4-(2-fluoro-6-(2-methoxy-4-(trifluoromethoxy)phenoxy)-3-(trifluoromethyl)benzamido)picolinate], for which the concentration for half-maximal inhibition (IC50) fell in the range of 500 to 1000 nM.

With `COC(=O)c1cc(NC(=O)c2c(Oc3ccc(OC(F)(F)F)c(F)c3Cl)ccc(C(F)(F)F)c2F)c(C)cn1` [Compound 20, Methyl 4-[[6-[2-chloro-3-fluoro-4-(trifluoromethoxy)phenoxy]-2-fluoro-3-(trifluoromethyl)benzoyl]amino]-5-methyl-pyridine-2-carboxylate], the concentration for half-maximal inhibition (IC50) is under 100 nM.

For `COC(=O)c1nccc(NC(=O)c2c(Oc3ccc(OC(F)(F)F)cc3OC)ccc(C(F)(F)F)c2F)c1C` [Compound 21, Methyl 4-[[2-fluoro-6-[2-methoxy-4-(trifluoromethoxy)phenoxy]-3-(trifluoromethyl)benzoyl]amino]-3-methyl-pyridine-2-carboxylate], the IC50 is at least 1000 nM.

In the case of `[2H]C([2H])([2H])Oc1cc(OC(F)(F)F)ccc1Oc1cc(C(F)(F)F)c(F)cc1C(=O)Nc1ccnc(NC(=O)OC(C)(C)C)c1` [Compound 7, tert-butyl N-[4-[[5-fluoro-2-[2-(trideuteriomethoxy)-4-(trifluoromethoxy)phenoxy]-4-(trifluoromethyl)benzoyl]amino]-2-pyridyl]carbamate], the half-inhibitory concentration (IC50) is at least 1000 nM.

`COC(=O)c1ccnc(NC(=O)c2c(Oc3ccc(OC(F)(F)F)c(F)c3OC)ccc(C(F)(F)F)c2F)c1` [Compound 23, Methyl 2-[[2-fluoro-6-[3-fluoro-2-methoxy-4-(trifluoromethoxy)phenoxy]-3-(trifluoromethyl)benzoyl]amino]pyridine-4-carboxylate]: the concentration for half-maximal inhibition (IC50) was in the range of 500 to 1000 nM.

Turning to `COC(=O)c1nccc(NC(=O)c2c(Oc3ccc(F)c(F)c3C)ccc(C(F)(F)F)c2C)c1C` [Compound 19, Methyl 4-[[6-(3,4-difluoro-2-methyl-phenoxy)-2-methyl-3-(trifluoromethyl)benzoyl]amino]-3-methyl-pyridine-2-carboxylate], the IC50 was at least 1000 nM.

Turning to `COC(=O)c1nccc(NC(=O)c2c(Oc3ccc(OC(F)(F)F)c(F)c3OC)ccc(C(F)(F)F)c2F)c1F` [Compound 30], the IC50 fell in the range of 100 to 500 nM.

On to `COC(=O)c1ccc(NC(=O)c2c(Oc3ccc(F)cc3OC)ccc(C(F)(F)F)c2F)cn1` [Compound 10, methyl 5-[[2-fluoro-6-(4-fluoro-2-methoxy-phenoxy)-3-(trifluoromethyl)benzoyl]amino]pyridine-2-carboxylate], for which the IC50 is at least 1000 nM.

Take `COC(=O)c1cc(NC(=O)c2c(Oc3ccc(OC(F)(F)F)c(F)c3OC)ccc(C(F)(F)F)c2F)cc(C(=O)OC)n1` [Compound 35, dimethyl 4-(2-fluoro-6-(3-fluoro-2-methoxy-4-(trifluoromethoxy)phenoxy)-3-(trifluoromethyl)benzamido)pyridine-2,6-dicarboxylate]: the IC50 is 100 to 500 nM.

As for `COC(=O)c1cc(NC(=O)c2c(Oc3ccc(OC(F)(F)F)c(F)c3C)ccc(C(F)(F)F)c2F)c(C)cn1` [Compound 17, Methyl 4-[[2-fluoro-6-[3-fluoro-2-methyl-4-(trifluoromethoxy)phenoxy]-3-(trifluoromethyl)benzoyl]amino]-5-methyl-pyridine-2-carboxylate], the IC50 is under 100 nM.

With `[2H]C([2H])([2H])Oc1cc(OC(F)(F)F)ccc1Oc1ccc(C(F)(F)F)cc1C(=O)Nc1ccnc(NC(=O)OC(C)(C)C)c1` [Compound 9, tert-butyl N-[4-[[2-[2-(trideuteriomethoxy)-4-(trifluoromethoxy)phenoxy]-5-(trifluoromethyl)benzoyl]amino]-2-pyridyl]carbamate], the half-inhibitory concentration (IC50) is at least 1000 nM.

`COC(=O)c1cc(NC(=O)c2c(Oc3ccc(OC(F)(F)F)c(F)c3OC)ccc(C(F)(F)F)c2C)c(C2CC2)cn1` [Compound 28, methyl 5-cyclopropyl-4-(6-(3-fluoro-2-methoxy-4-(trifluoromethoxy)phenoxy)-2-methyl-3-(trifluoromethyl)benzamido)picolinate]: the IC50 was at least 1000 nM.

On to `COC(=O)c1nccc(NC(=O)c2c(Oc3ccc(OC(F)(F)F)c(F)c3OC)ccc(C(F)(F)F)c2C)c1C` [Compound 32, methyl 4-(6-(3-fluoro-2-methoxy-4-(trifluoromethoxy)phenoxy)-2-methyl-3-(trifluoromethyl)benzamido)-3-methylpicolinate], for which the IC50 was at least 1000 nM.

As for `COC(=O)c1cc(NC(=O)c2c(Oc3ccc(F)c(F)c3C)ccc(C(F)(F)F)c2C)c(C)cn1` [Compound 18, Methyl 4-[[6-(3,4-difluoro-2-methyl-phenoxy)-2-methyl-3-(trifluoromethyl)benzoyl]amino]-5-methyl-pyridine-2-carboxylate], the IC50 was 500 to 1000 nM.

With `COC(=O)c1nccc(NC(=O)c2c(Oc3ccc(OC(F)(F)F)c(F)c3OC)ccc(C(F)(F)F)c2F)c1C` [Compound 34, methyl 4-(2-fluoro-6-(3-fluoro-2-methoxy-4-(trifluoromethoxy)phenoxy)-3-(trifluoromethyl)benzamido)-3-methylpicolinate], the half-inhibitory concentration (IC50) was at least 1000 nM.

`COC(=O)c1cc(NC(=O)c2c(Oc3ccc(OC(F)(F)F)c(F)c3OC)ccc(C(F)(F)F)c2F)c(C2CC2)cn1` [Compound 27, methyl 5-cyclopropyl-4-(2-fluoro-6-(3-fluoro-2-methoxy-4-(trifluoromethoxy)phenoxy)-3-(trifluoromethyl)benzamido)picolinate]: the 50% inhibitory concentration (IC50) was at least 1000 nM.

For `[2H]C([2H])([2H])Oc1cc(OC(F)(F)F)ccc1Oc1cc(C(F)(F)F)c(F)cc1C(=O)Nc1ccc(C(=O)OC)nc1` [Compound 1, Methyl 5-[[5-fluoro-2-[2-(trideuteriomethoxy)-4-(trifluoromethoxy)phenoxy]-4-(trifluoromethyl)benzoyl]amino]pyridine-2-carboxylate], the IC50 was at least 1000 nM.

For `COC(=O)c1cc(NC(=O)c2c(Oc3ccc(OC(F)(F)F)cc3OC)ccc(C3CC3)c2C)c(C)cn1` [Compound 2, methyl 4-[[3-cyclopropyl-6-[2-methoxy-4-(trifluoromethoxy)phenoxy]-2-methyl-benzoyl]amino]-5-methyl-pyridine-2-carboxylate], the concentration for half-maximal inhibition (IC50) is 100 to 500 nM.

For the molecule `COC(=O)c1ccnc(NC(=O)c2c(Oc3ccc(OC(F)(F)F)c(F)c3OC)ccc(C(F)(F)F)c2C)c1` [Compound 24, Methyl 2-[[6-[3-fluoro-2-methoxy-4-(trifluoromethoxy)phenoxy]-2-methyl-3-(trifluoromethyl)benzoyl]amino]pyridine-4-carboxylate], the IC50 is at least 1000 nM.

For `[2H]C([2H])([2H])Oc1cc(OC(F)(F)F)ccc1Oc1ccc(C(F)(F)F)c(F)c1C(=O)Nc1ccc(C(=O)OC)nc1` [Compound 11, methyl 5-[[2-fluoro-6-[2-(trideuteriomethoxy)-4-(trifluoromethoxy)phenoxy]-3-(trifluoromethyl)benzoyl]amino]pyridine-2-carboxylate], the IC50 fell in the range of 100 to 500 nM.

On to `COC(=O)c1ccc(NC(=O)c2c(Oc3ccc(OC(F)(F)F)cc3OC)ccc(C(F)(F)F)c2F)cn1` [Compound 15, Methyl 5-[[2-fluoro-6-[2-methoxy-4-(trifluoromethoxy)phenoxy]-3-(trifluoromethyl)benzoyl]amino]pyridine-2-carboxylate], for which the 50% inhibitory concentration (IC50) lay in the range of 100 to 500 nM.

Consider `COC(=O)c1cc(NC(=O)c2c(Oc3ccc(OC(F)(F)F)cc3OC)ccc(C(F)(F)F)c2O)ccn1` [Compound 25, Methyl 4-[[2-hydroxy-6-[2-methoxy-4-(trifluoromethoxy)phenoxy]-3-(trifluoromethyl)benzoyl]amino]pyridine-2-carboxylate], for which the half-maximal inhibitory concentration (IC50) was 100 to 500 nM.
